pKi: −log10 of the molar value. Counter-ions that a name gives are not always drawn. Like-named read-outs stand apart in the source and are kept apart here.
Legend:
dopamine D2 = target: T1, dopamine D2 (Rattus norvegicus, UniProt P61169); assay: Receptor Binding Assay, dopamine D2 (3H-spiperone, P2 fraction from striatum); design: species or system male, Wistar rats
T1 construct: P2 fraction (synaptosomal membranes) prepared from male, Wistar rats; from tissue; host or cells: rat (Wistar, male) striatum, P2 synaptosomal membranes
Description: The dopamine D2 and serotonin 5-HT1A binding activity of compounds was determined using a P2 fraction (synaptosomal membranes) prepared from male, Wistar rats. The D2 assay employed a P2 fraction from the striatum, the ligand ^3 H-spiperone at a concentration of 0.05 nM, and […] haloperidol as a blank determinant. […].
(§1) The data from each assay were analyzed by calculating the percent inhibition of the binding of the tritiated ligands by given concentrations of the test compound. KI values, where given, were obtained from the logit analysis of concentration-inhibition curves.

serotonin 5-HT1A = target: T2, serotonin 5-HT1A (Rattus norvegicus, UniProt P19327); assay: Receptor Binding Assay, serotonin 5-HT1A (3H-8-hydroxy-DPAT, P2 fraction from cerebral cortex); design: species or system male, Wistar rats; settings: known drugs, 3H-8-hydroxy-DPAT 3 nM, pH 7.5, 20 min, 25° C., read-out: KI values for some known drugs, 5-HT1A assay
T2 construct: P2 fraction (synaptosomal membranes) prepared from male, Wistar rats; from tissue; host or cells: rat (Wistar, male) cerebral cortex, P2 synaptosomal membranes
T2 sequence (P19327 1-422): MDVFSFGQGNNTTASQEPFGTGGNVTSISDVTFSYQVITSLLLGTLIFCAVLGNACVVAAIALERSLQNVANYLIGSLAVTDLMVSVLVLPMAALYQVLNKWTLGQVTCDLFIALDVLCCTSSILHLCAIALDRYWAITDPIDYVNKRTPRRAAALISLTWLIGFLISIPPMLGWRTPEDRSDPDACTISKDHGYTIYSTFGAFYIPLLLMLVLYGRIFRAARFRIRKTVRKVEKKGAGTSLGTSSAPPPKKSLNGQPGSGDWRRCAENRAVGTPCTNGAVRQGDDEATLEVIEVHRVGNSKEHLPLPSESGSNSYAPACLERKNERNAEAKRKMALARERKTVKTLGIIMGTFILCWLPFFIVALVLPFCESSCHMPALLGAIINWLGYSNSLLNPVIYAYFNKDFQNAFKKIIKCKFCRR
Description: The dopamine D2 and serotonin 5-HT1A binding activity of compounds was determined using a P2 fraction (synaptosomal membranes) prepared from male, Wistar rats.
as §1

[1] = 3H-spiperone 0.05 nM, rat striatum P2 fraction, pH 7.5, 45 min, 37° C., read-out: Receptor Binding, Ki, D-2

T1 sequence (P61169 whole entry): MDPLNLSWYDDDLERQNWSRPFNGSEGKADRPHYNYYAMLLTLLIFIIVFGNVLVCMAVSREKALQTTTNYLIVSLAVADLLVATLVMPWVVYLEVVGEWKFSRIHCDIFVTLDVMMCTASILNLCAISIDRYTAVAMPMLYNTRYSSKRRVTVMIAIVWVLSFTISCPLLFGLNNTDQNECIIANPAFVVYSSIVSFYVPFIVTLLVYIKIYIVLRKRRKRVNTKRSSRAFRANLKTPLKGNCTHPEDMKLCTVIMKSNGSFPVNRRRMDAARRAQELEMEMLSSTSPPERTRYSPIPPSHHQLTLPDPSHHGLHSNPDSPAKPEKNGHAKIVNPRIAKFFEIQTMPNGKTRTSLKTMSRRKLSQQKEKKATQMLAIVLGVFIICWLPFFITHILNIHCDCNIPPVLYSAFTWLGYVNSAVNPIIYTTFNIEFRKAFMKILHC

| SMILES | pKi (dopamine D2; [1]) | pKi (dopamine D2) | also measured |
| --- | --- | --- | --- |
| O=C(c1cccc(CN2CCc3c([nH]c4ccccc34)C2)c1)N1CCc2ccccc21 [Compound 11, 1-(3-(2-(1,2,3,4-Tetrahydro-9H-pyrido(3.4-b)indolyl)methyl)benzoyl)indoline Monofumarate] |  | < 6.00 |  |
| O=C(c1cccc(CN2CCN3c4ccccc4OCC3C2)c1)N1CCCCC1 (centres unmarked) [Compound 13, 1-(3-(1-(1,2,3,4,4a,5-hexahydropyrazino(1.2-c)-1,4-benzoxazinyl)methyl)benzoyl)pipridine Sesquioxalate] | < 6.00 |  |  |
| O=C(c1cccc(CN2CCc3c([nH]c4ccccc34)C2)c1)N1CCCCC1 [Compound 9, 1-(3-(2-(1,2,3,4-Tetrahydro-9H-pyrido(3,4-b)indolyl)methyl)-benzoyl)piperidine Monooxalate 0.3 Hydrate] |  | 6.43 |  |
| Cc1ccc(N(CC2=NCCN2)c2cccc(O)c2)cc1 [phentolamine] |  |  | pKi (serotonin 5-HT1A): 7.23 |
| O=C(c1cccc(CN2CCN3c4ccccc4OCC3C2)c1)N1CCc2ccccc21 (centres unmarked) [Compound 14, 1-(3-(3-(1,2,3,4,4a,5-Hexahydropyrazino(1,2-c)-1,4-benzoxazinyl)methyl)benzoyl)iondoline 1.2 Oxalate] | < 6.00 |  |  |
